Where a SMILES comes first, the peptide text is derived from it. [ ]: non-standard residue; d: D form. ξ: configuration not given here. N(CH2CH2COOH)Gly = O=C(O)CCNCC(=O)O; Gly(N-CH2CH2OH) = O=C(O)CNCCO; Nleu = CC(C)CNCC(=O)O; Nlys = NCCCCNCC(=O)O; ξC = NC(CS)C(=O)O
Experiments:
[1] = system: Huh7 cell line with high expression of an EpCAM protein; experiment: Cell-level imaging with fluorescently labeled peptoid molecular probe, laser confocal microscopy, Huh7 cells; type: cell-based; conditions: probe incubated at 4° C. for 30 min, confocal 100× oil objective
Method: (§1) The specific steps for cell-level imaging using a fluorescently labeled molecular probe with a peptoid were as follows: • (1) Cell culture and passage: The cell models were an Huh7 cell line with high expression of an EpCAM protein and a human embryonic kidney 293T cell line with low expression of EpCAM (Shanghai Biological Technology Co., Ltd. enzyme research); Huh7 and 293T cells were cultured in a constant temperature incubator (5% CO2) at 37° C. with RPMI1640 medium and DMEM/High glucose medium containing 10% fetal bovine serum and 1% penicillin and streptomycin, respectively; • (2) When the degree of cell fusion reached more than 90%, the cells were passaged. […]

[2] = system: human embryonic kidney 293T cell line with low expression of EpCAM; experiment: Cell-level imaging with fluorescently labeled peptoid molecular probe, laser confocal microscopy, 293T control cells; type: cell-based; conditions: 293T cells (low EpCAM, control group), probe incubated at 4° C. for 30 min, confocal 100× oil objective
Method: as §1

SMILES: CC(C)CNCC(=O)N(CCCCN)CC(=O)N(CCO)CC(=O)N(CCC(=O)O)CC(=O)N(CCCCN)CC(=O)N(CCCCN)CC(=O)NC(CS)C(N)=O (centres unmarked) [Example 1] (H-[Nleu][Nlys][Gly(N-CH2CH2OH)][N(CH2CH2COOH)Gly][Nlys][Nlys][ξC]-NH2)
- FITC green fluorescence on the cell membrane [1]: Significant green fluorescence
- FITC green fluorescence on the cell membrane [2]: weak green fluorescence or no green fluorescence

Reference: US11971413B2, “Peptoid, and its preparation method and use” (BEIJING BOE TECHNOLOGY DEVELOPMENT CO., LTD., priority 2019, dated 2024)
